# Positions of bridges follow the written chain, without caps; N, C: chain ends. Non-standard residues stand in square brackets, D forms with d. Residues, ends and D or L forms follow the SMILES beside them. *: point of attachment. Phe(3,4,5-F3) = N[C@@H](Cc1cc(F)c(F)c(F)c1)C(=O)O; Phe(4-CF3) = N[C@@H](Cc1ccc(C(F)(F)F)cc1)C(=O)O; dPhe(4-CF3) = N[C@H](Cc1ccc(C(F)(F)F)cc1)C(=O)O; Benzoyl(4-Ph) = O=C(c1ccc(-c2ccccc2)cc1)*; dPhe(4-Cl) = N[C@H](Cc1ccc(Cl)cc1)C(=O)O; Phe(3-F) = N[C@@H](Cc1cccc(F)c1)C(=O)O; dPhe(2-F) = N[C@H](Cc1ccccc1F)C(=O)O; Gly(octyl) = CCCCCCCC[C@H](N)C(=O)O; d(hLeu) = CC(C)CC[C@@H](N)C(=O)O; hPhe = N[C@@H](CCc1ccccc1)C(=O)O; Octanoyl = CCCCCCCC(=O)*; Dab = NCC[C@H](N)C(=O)O
# Assay: Hemolytic activity in human RBC at 400 ug/ml after 1 hr
# Type: toxicity, cell-based, Erythrocyte
# Conditions: red blood cells (erythrocytes), at 400 µg/mL, read-out: Activity
row,Compound,"hemolysis at 1 h, 400 ug/ml [%]"
1,CCCCCCCC[C@@H]1NC(=O)[C@@H](Cc2ccccc2)NC(=O)[C@H](CCN)NC(=O)[C@@H](NC(=O)[C@H](CCN)NC(=O)[C@@H](NC(=O)[C@H](CCN)NC(=O)CCCCCCC)[C@@H](C)O)CCNC(=O)[C@H]([C@@H](C)O)NC(=O)[C@H](CCN)NC(=O)[C@H](CCN)NC1=O (Octanoyl-[Dab]T[Dab][Dab][Dab][dF][Gly(octyl)][Dab][Dab]T; lactam 4-C),< 10
2,CC(=O)N[C@H](Cc1ccccc1F)C(=O)N[C@@H](CCN)C(=O)N[C@H](C(=O)N[C@@H](CCN)C(=O)N[C@H]1CCNC(=O)[C@H]([C@@H](C)O)NC(=O)[C@H](CCN)NC(=O)[C@H](CCN)NC(=O)[C@H](CC(C)C)NC(=O)[C@@H](Cc2ccccc2)NC(=O)[C@@H](CCN)NC1=O)[C@H](C)O,< 10
3,CCCCCCCC(=O)N[C@@H](CCN)C(=O)N[C@H](C(=O)N[C@@H](CCN)C(=O)N[C@H]1CCNC(=O)[C@H]([C@@H](C)O)NC(=O)[C@H](CCN)NC(=O)[C@H](CCN)NC(=O)[C@H](CC(C)C)NC(=O)[C@@H](Cc2ccc(Cl)cc2)NC(=O)[C@H](CCN)NC1=O)[C@@H](C)O (Octanoyl-[Dab]T[Dab][Dab][Dab][dPhe(4-Cl)]L[Dab][Dab]T; lactam 4-C),< 10
4,CCCCCCCC(=O)N[C@@H](CCN)C(=O)N[C@H](C(=O)N[C@@H](CCN)C(=O)N[C@H]1CCNC(=O)[C@H]([C@@H](C)O)NC(=O)[C@H](CCN)NC(=O)[C@H](CCN)NC(=O)[C@H](Cc2ccc(C(F)(F)F)cc2)NC(=O)[C@@H](CC(C)C)NC(=O)[C@H](CCN)NC1=O)[C@@H](C)O (Octanoyl-[Dab]T[Dab][Dab][Dab][dL][Phe(4-CF3)][Dab][Dab]T; lactam 4-C),< 10
5,CC[C@H](C)[C@@H]1NC(=O)[C@@H](CC(C)C)NC(=O)[C@H](CCN)NC(=O)[C@@H](NC(=O)[C@@H](CO)NC(=O)[C@@H](NC(=O)[C@H](CCN)NC(=O)c2ccc(-c3ccccc3)cc2)[C@@H](C)O)CCNC(=O)[C@H](CC(C)C)NC(=O)[C@H](CCN)NC(=O)[C@H](CCN)NC1=O ({Benzoyl(4-Ph)}-[Dab]T[dS][Dab][Dab][dL]I[Dab][Dab]L; lactam 4-C),< 10
6,CCCCCCCC(=O)N[C@@H](CCN)C(=O)N[C@H](C(=O)N[C@@H](CCN)C(=O)N[C@H]1CCNC(=O)[C@H]([C@@H](C)O)NC(=O)[C@H](CCN)NC(=O)[C@H](CCN)NC(=O)[C@H](CCCCCC)NC(=O)[C@@H](Cc2ccccc2)NC(=O)[C@H](CCN)NC1=O)[C@@H](C)O,< 10
7,"CCCCCCCC(=O)N[C@@H](CCN)C(=O)N[C@H](C(=O)N[C@@H](CCN)C(=O)N[C@H]1CCNC(=O)[C@H]([C@@H](C)O)NC(=O)[C@H](CCN)NC(=O)[C@H](CCN)NC(=O)[C@H](Cc2cc(F)c(F)c(F)c2)NC(=O)[C@@H](CC(C)C)NC(=O)[C@H](CCN)NC1=O)[C@@H](C)O (Octanoyl-[Dab]T[Dab][Dab][Dab][dL][Phe(3,4,5-F3)][Dab][Dab]T; lactam 4-C)",< 10
8,CCCCCCCC(=O)N[C@@H](CCN)C(=O)N[C@H](C(=O)N[C@@H](CCN)C(=O)N[C@H]1CCNC(=O)[C@H]([C@@H](C)O)NC(=O)[C@H](CCN)NC(=O)[C@H](CCN)NC(=O)[C@H](CC(C)C)NC(=O)[C@@H](Cc2ccccc2F)NC(=O)[C@H](CCN)NC1=O)[C@@H](C)O (Octanoyl-[Dab]T[Dab][Dab][Dab][dPhe(2-F)]L[Dab][Dab]T; lactam 4-C),< 10
9,CCCCCCCC(=O)N[C@@H](CCN)C(=O)N[C@H](C(=O)N[C@@H](CCN)C(=O)N[C@H]1CCNC(=O)[C@H]([C@@H](C)O)NC(=O)[C@H](CCN)NC(=O)[C@H](CCN)NC(=O)[C@H](Cc2ccccc2)NC(=O)[C@@H](CCC(C)C)NC(=O)[C@H](CCN)NC1=O)[C@@H](C)O (Octanoyl-[Dab]T[Dab][Dab][Dab][d(hLeu)]F[Dab][Dab]T; lactam 4-C),< 10
10,CCCCCCCC(=O)N[C@@H](CCN)C(=O)N[C@H](C(=O)N[C@@H](CCN)C(=O)N[C@H]1CCNC(=O)[C@H]([C@@H](C)O)NC(=O)[C@H](CCN)NC(=O)[C@H](CCN)NC(=O)[C@H](CCc2ccccc2)NC(=O)[C@@H](CC(C)C)NC(=O)[C@H](CCN)NC1=O)[C@@H](C)O (Octanoyl-[Dab]T[Dab][Dab][Dab][dL][hPhe][Dab][Dab]T; lactam 4-C),< 10
11,CCCCCCCC(=O)N[C@@H](CCN)C(=O)N[C@H](C(=O)N[C@@H](CCN)C(=O)N[C@H]1CCNC(=O)[C@H]([C@@H](C)O)NC(=O)[C@H](CCN)NC(=O)[C@H](CCN)NC(=O)[C@H](CC(C)C)NC(=O)[C@@H](Cc2ccc(C(F)(F)F)cc2)NC(=O)[C@H](CCN)NC1=O)[C@@H](C)O (Octanoyl-[Dab]T[Dab][Dab][Dab][dPhe(4-CF3)]L[Dab][Dab]T; lactam 4-C),< 10
12,CCCCCCCC(=O)N[C@@H](CCN)C(=O)N[C@H](C(=O)N[C@@H](CCN)C(=O)N[C@H]1CCNC(=O)[C@H]([C@@H](C)O)NC(=O)[C@H](CCN)NC(=O)[C@H](CCN)NC(=O)[C@H](Cc2cccc(F)c2)NC(=O)[C@@H](CC(C)C)NC(=O)[C@H](CCN)NC1=O)[C@@H](C)O (Octanoyl-[Dab]T[Dab][Dab][Dab][dL][Phe(3-F)][Dab][Dab]T; lactam 4-C),< 10
